According to patent US8088887B2, “Peptide-conjugates that bind to VEGF-stimulated or tumor vasculature and methods of treatment” (Academia Sinica, priority 2007, dated 2012):
Entries after “also recorded” stand apart in the source; their conditions may differ.

Assays:
oral cancer xenografts = test: Peptide competitive inhibition of IVO-2 phage homing, oral cancer xenografts; type: in vivo, SCID mice
[1] = system: NSCLC tumor mass (CL1-5-derived tumors); test: Peptide competitive inhibition of PC5-52 phage homing, lung cancer xenografts; type: in vivo, SCID mice
Method: To investigate the targeting ability of PC5-52, phages were injected into the tail vein of SCID mice bearing human lung cancer cell-derived tumors and recovered after perfusion. We determined the titers of the phages in tumor mass and other normal organs. The phage clones, or control helper phage (insertless phage), were injected into the tail vein (i.v.) of SCID mice bearing human lung cancer tumor xenografts for 8 min or 24 h. After perfusion, xenograft tumors and organs were removed and the recovered phage titered. In peptide competitive inhibition experiments, described below, phage clones were co-injected with 100 μg synthetic peptide. After injection of candidate or control phage clones, the organs and tumors were removed and divided into two parts. One part was titered by ER2738, and another part was embedded in Optimal Cutting Temperature (OCT, Tissue-Tek, NL, USA). The OCT-embedded frozen tissues were sectioned at 5 microns and transferred to cold PBS buffer. Then, the sections were fixed with acetone-methanol (1:1), washed with PBS and immersed in blocking buffer (1% BSA in PBS) for 1 h. The blocked samples were then incubated with rat anti-mouse CD31 (BD Pharmingen, Mass., USA.), rabbit anti-rat Ab (Stressgen, Canada) and immersed in Rhodamine labeled goat anti-rabbit antibody (Jackson ImmunoResearch, Pa., USA.). […]

Row | Sequence | inhibition of IVO-2 homing to oral cancer xenografts (oral cancer xenografts; coinjection of 100 μg peptide) [%] | inhibition of PC5-52 homing to NSCLC tumor mass ([1]; 100 μg peptide co-injected with phage) [%] | inhibition of tumor homing ability of PC5-52 ([1]; co-injected peptide, CL1-5-derived tumors, FIG. 2B/4B) | inhibition of IVO-2 homing to tumor tissue (oral cancer xenografts; co-injected peptide, FIG. 2D)
1 | SVSVGMKPSPRP [SP5-52] | 95.9 | 97 | inhibited markedly; also recorded: markedly inhibited | 
2 | RLLDTNRPLLPY [Control peptide, synthetic control peptide, reference compound] |  |  |  | could not inhibit
